In brackets after ≈: the same amount, converted by molar mass. Structures can show the parent of a compound that is named as a salt.
Assays:
[1] = tested on: Mycobacterium tuberculosis; assay: Antimycobacterial activity against Mycobacterium tuberculosis H37Rv after 45 days; type: functional
HEK-293T = assay: Cytotoxicity against human 293T cells; type: cell-based
[2] = Selectivity index, ratio of IC50 for human 293T cells to MIC for Mycobacterium tuberculosis H37Rv; type: toxicity, cell-based; conditions: read-out: Selectivity Index

Row | SMILES | MIC [1] [µM] | IC50 (HEK-293T) [µM] | selectivity ratio [2]
1 | CC1(C)[C@@H]2CC[C@@]1(C)[C@H](NC(=O)[C@@H](O)c1ccccc1)C2 | 0.17 (≈ 0.0489 µg/mL) | 105 | 619
2 | CC(C)[C@H](O)C(=O)N[C@@H]1C[C@H]2CC[C@]1(C)C2(C)C | 7.89 (≈ 2 µg/mL) | > 200 | > 25.3
3 | CSCC[C@H](O)C(=O)N[C@@H]1C[C@H]2CC[C@]1(C)C2(C)C | 0.17 (≈ 0.0485 µg/mL) | 172 | 1010
4 | CC(C)C[C@H](O)C(=O)N[C@@H]1C[C@H]2CC[C@]1(C)C2(C)C | 7.48 (≈ 2 µg/mL) | 112 | 14.9
5 | CC[C@H](C)[C@H](O)C(=O)N[C@@H]1C[C@H]2CC[C@]1(C)C2(C)C | 7.48 (≈ 2 µg/mL) | 107 | 13.6
6 | CC1(C)[C@@H]2CC[C@@]1(C)[C@H](NC(=O)[C@@H](O)Cc1ccccc1)C2 | 0.16 (≈ 0.0482 µg/mL) | 52.8 | 330
7 | CC[C@@H](CO)NCCN[C@@H](CC)CO [ETHAMBUTOL HYDROCHLORIDE] | 7.22 |  | 
8 | CO[C@H]1/C=C/O[C@@]2(C)Oc3c(C)c(O)c4c(O)c(c(/C=N/N5CCN(C)CC5)c(O)c4c3C2=O)NC(=O)/C(C)=C\C=C\[C@H](C)[C@H](O)[C@@H](C)[C@@H](O)[C@@H](C)[C@H](OC(C)=O)[C@@H]1C [RIFAMPIN] | 0.06 (≈ 0.0494 µg/mL) |  | 
